“Also recorded” adds a separate entry of the source.
Experiments:
Format in all cases: in vivo, human
thyroglobulin [1] = experiment: Serum thyroglobulin, chemiluminescent immunometric assay (IMMULITE 2000), pre- and post-treatment with E7080
Procedure: The serum for the thyroglobulin assays was collected within 72 hours prior to Day 1 of all cycles. 24 mg of E7080 was administered orally, daily continuously in 28-day cycles. Serum samples from 58 patients were used for thyroglobulin measurements. 6 mL of blood was drawn into red top tubes and let to clot at room temperature for at least 30 min. Within 60 minutes of sample collection, the tubes were centrifuged for 15 minutes at 20-25° C. at 1000×g. The supernatant was drawn without disturbing the pellet, put into sample tubes with serum filter and shipped frozen to the central lab for testing on the day of collection. The level of thyroglobulin was detected by a solid-phase, chemiluminescent immunometric assay (IMMULITE 2000 Thyroglobulin Assay System, Siemens) following standard operating procedure. In brief, serum thyroglobulin was captured by beads coated with anti-thyroglobulin antibody and detected using anti-thyroglobulin antibody linked to alkaline phosphatase. The level of serum thyroglobulin was calculated from a standard curve generated with lyophilized thyroglobulin. Serum thyroglobulin was stable for up to 2 months when stored frozen for the assay. The sensitivity of this assay was 0.2 ng/ml. From 58 patient samples, 50 pre- and post-treatment blood samples at maximum were used for these analyses. Dramatic changes in thyroglobulin levels were observed 29 days after the start of treatment with E7080.

thyroglobulin [2] = experiment: as above; details: 48 days (within 2 cycles) after treatment; decrease continued to cycle 8
[3] = system: differentiated thyroid cancer patients; experiment: Tumor shrinkage (percent change of sum of diameters of target lesions) in E7080-treated DTC patients
Procedure: (§1) The period during which a patient takes E7080 was artificially divided into different Cycles for ease of evaluation and tracking. Patients received E7080 at a dose of 24 mg oral once daily in 28 day cycles. For analysis purposes, assessments of clinical outcomes were performed at the time of the 9 month and at 14 month minimum follow-up. For the E7080 Thyroid Cancer trial, each Cycle is 28 days (4 weeks) so Day 1-28 is cycle 1; Day 29 is Day 1 of Cycle 2; and Day 57 is Day 1 of Cycle 3. Blood samples were collected for pharmacokinetic (PK) analysis on Cycle 1 Days 1 and 8, Cycle 2 Day 1, and Cycle 3 Day 1. A total of 9 samples per patient were collected as follows: Cycle 1 Day 1: immediately prior to the dose of E7080, and at 0.5 and 2 hours following the first dose of E7080 (post-dose); Cycle 1 Day 8: immediately prior to the dose of E7080; Cycle 2 Day 1: immediately prior to the dose of E7080, 0.5 and 2 hours post-dose; Cycle 3 Day 1: immediately prior to the dose of E7080 and 2 hours post-dose. For analysis of progression free survival, PK parameter was used as a covariate in Cox proportional hazards model.
“Tumor shrinkage” (TS) means percent change of sum of diameters of target lesions, taking as reference the baseline sum diameters.
Also changes in thyroglobulin levels were associated with tumor shrinkage after completion of cycle 2 (56 days after treatment) (Speaman's rank correlation test, Table 8, middle).
Next, the factors associated with tumor shrinkage were investigated (Pearson's correlation coefficient test, Table 11).

[4] = system: differentiated thyroid cancer patients; experiment: Multivariate prediction models of PFS combining mutations and blood biomarkers (Cox proportional hazards model, hazard threshold, log rank test); details: pre-treatment
Procedure: All factors (i.e., mutations, thyroglobulin, cytokine, chemokine and angiogenic factors) were used as independent variables of interest, that is, as biomarker candidates. PFS was used as a dependent variable, that is, as one of the clinical outcomes, in this analysis. Firstly, all factors were screened according to p-values calculated by Cox proportional hazards model with single factor. Secondly, all combinations of the screened factors were tested by Cox proportional hazards model to find significant factors in all combinations of the factors. Combinations in which all factors were significant were chosen for further analysis. Hazard functions of the combinations of factors defined by their coefficients were obtained from this analysis. Each patient has his/her own hazard value for each model, so that patients can be assigned into two groups when a threshold of hazard is given for a model. After grouping patients, log rank test of progression free survival was performed to test difference of survival curves between two groups (low hazard and high hazard). The best threshold of hazard for each model of combination of factors was identified by sweeping threshold to calculate log rank test p-values and finding a threshold that minimized the smoothed curve constructed from the p-values, which was similar to the approach described in U. Abel, J. Berger and H. Wiebelt, “CRITLEVEL: An Exploratory Procedure for the Evaluation of Quantitative Prognostic Factors”, Methods Inf. Medicine, 23(3):154-6(1984). The best thresholds of the models divided patients into high and low hazard groups. Patients are predicted as longer PFS when their hazard value is lower than the threshold.

[5] = system: differentiated thyroid cancer patients; experiment: Progression free survival of E7080-treated DTC patients (Logrank test, Cox proportional hazards model with or without PK covariate); details: patients with mutations in NRAS alone or in either NRAS or KRAS vs wild type for NRAS or KRAS
Procedure: as §1, with “model. […]” for “model.”
The association of gene mutations with progression free survival of treated patients was analyzed first by performing Logrank test and then using Cox proportional hazards model with or without covariates. […]

With `COc1cc2nccc(Oc3ccc(NC(=O)NC4CC4)c(Cl)c3)c2cc1C(N)=O` [E7080, 4-(3-chloro-4-(cyclopropylaminocarbonyl)aminophenoxy)-7-methoxy-6-quinolinecarboxamide] the “Thyroglobulin level ratio (median), Other group (SD or PD)” value (shortened to “Thyroglobulin level ratio … (SD or PD)”) (thyroglobulin [1]; CYCLE2 DAY 1/CYCLE1 DAY 1) was 0.288, the “Thyroglobulin level ratio (median), PR group” value (thyroglobulin [1]; CYCLE2 DAY 1/CYCLE1 DAY 1) was 0.195 and the “Thyroglobulin level ratio … (SD or PD)” value (thyroglobulin [1]; CYCLE3 DAY 1/CYCLE1 DAY 1) was 0.221. For the same compound, the “Thyroglobulin level ratio (median), PR group” value (thyroglobulin [1]; CYCLE3 DAY 1/CYCLE1 DAY 1) was 0.109, the “Thyroglobulin level ratio … (SD or PD)” value (thyroglobulin [1]; CYCLE4 DAY 1/CYCLE1 DAY 1) was 0.227 and the “Thyroglobulin level ratio (median), PR group” value (thyroglobulin [1]; CYCLE4 DAY 1/CYCLE1 DAY 1) was 0.079. For the same compound, the “Thyroglobulin level ratio … (SD or PD)” value (thyroglobulin [1]; CYCLE5 DAY 1/CYCLE1 DAY 1) was 0.332, the “Thyroglobulin level ratio (median), PR group” value (thyroglobulin [1]; CYCLE5 DAY 1/CYCLE1 DAY 1) was 0.106 and the “Thyroglobulin level ratio … (SD or PD)” value (thyroglobulin [1]; CYCLE6 DAY 1/CYCLE1 DAY 1) was 0.198. The “Thyroglobulin level ratio (median), PR group” value (thyroglobulin [1]; CYCLE6 DAY 1/CYCLE1 DAY 1) was 0.078, the “Change in serum thyroglobulin levels after treatment” value (thyroglobulin [2]) was “significantly decreased” and the “% of tumor shrinkage (Median)” value ([3]; KRAS, NRAS (any of gene) mutation patients) was −44.5%. The “% of tumor shrinkage (Median)” value ([3]; KRAS, NRAS wild type patients) was −31.0%, the “% of tumor shrinkage (Median)” value ([3]; NRAS mutation patients) was −45.5% and the “% of tumor shrinkage (Median)” value ([3]; NRAS wild type patients) was −35.5%. For the same compound, the “HR (low vs high hazard group, PFS)” value ([4]; prediction model: ANG-2) was 0.545, the “HR (low vs high hazard group, PFS)” value ([4]; prediction model: IL13 + MIP1a) was 1.00E−09 and the “HR (low vs high hazard group, PFS)” value ([4]; prediction model: IL13 + MIP1a + MIP1b) was 0.121. The “HR (low vs high hazard group, PFS)” value ([4]; prediction model: NRAS mutation + ANG-2 (log10(ANg2))) was 0.115, the “HR (low vs high hazard group, PFS)” value ([4]; prediction model: NRAS mutation + ANG-2 (log10(Ang290))) was 0.085 and the “HR (low vs high hazard group, PFS)” value ([4]; prediction model: NRAS mutation + VEGFA + ANG-2 + MIP1b + sVEGFR3) was 2.60E−10. The “HR (low vs high hazard group, PFS)” value ([4]; prediction model: NRAS mutation + VEGFA + MIP1b) was 0.097, the “HR (low vs high hazard group, PFS)” value ([4]; prediction model: NRAS mutation + VEGFA + MIP1b + sVEGFR3) was 0.054 and the “HR (low vs high hazard group, PFS)” value ([4]; prediction model: NRAS mutation, D(NRAS, MU)) was 0.124. The “HR (low vs high hazard group, PFS)” value ([4]; prediction model: VEGFA) was 0.552, the “HR (low vs high hazard group, PFS)” value ([4]; prediction model: VEGFA + ANG-2) was 0.386 and the “HR (low vs high hazard group, PFS)” value ([4]; prediction model: VEGFA + ANG-2 + GCSF) was 0.413. The “HR (low vs high hazard group, PFS)” value ([4]; prediction model: mutation in any of BRAF, KRAS, NRAS + MIP1a) was 0.086, the “HR (low vs high hazard group, PFS)” value ([4]; prediction model: mutation in any of BRAF, KRAS, NRAS + VEGFA + MIP1a + MIP1b + IL-6) was 1.90E−10 and the “HR (low vs high hazard group, PFS)” value ([4]; prediction model: mutation in any of KRAS, NRAS + ANG-2) was 0.083. The “HR (low vs high hazard group, PFS)” value ([4]; prediction model: mutation in any of KRAS, NRAS, D(KRASNRAS, MU)) was 0.205 and the “Progression free survival, Logrank test” value [5] was “better progression free survival; also recorded: better PFS”.

Source: patent US9945862B2, “Biomarkers for predicting and assessing responsiveness of thyroid and kidney cancer subjects to lenvatinib compounds” (Eisai R&D Management Co., Ltd., priority 2011, dated 2018)
